{"source": "patent US4039736A", "about": "(Bristol-Myers Company, priority 1976, dated 1977)", "key": {"[1]": {"tested_on": "Staphylococcus aureus A-9537", "assay": "MIC, standard tube dilution procedure", "format": "cell-based", "conditions": "Staphylococcus aureus, A9537"}, "Candida krusei A-15052": {"tested_on": "Candida krusei A-15052", "assay": "MIC, standard tube dilution procedure", "format": "cell-based", "conditions": "Pichia kudriavzevii, A15052"}, "L-1210 leukemia [2]": {"tested_on": "L-1210 leukemia", "assay": "L-1210 mouse leukemia, purified compounds, BDF1 female mice", "experimental": "Inoculum: 10^6 ascitic cells, i.p. into BDF1 female mice\nTreatment: i.p. in 0.5 ml. volume\nEvaluation: MST = median survival time in days; %T/C = MST treated/MST\n(prolongation of host survival)"}, "Escherichia coli A-21780": {"tested_on": "Escherichia coli A-21780", "assay": "MIC, standard tube dilution procedure", "format": "cell-based", "conditions": "Escherichia coli, A21780"}, "Candida albicans A-9540": {"tested_on": "Candida albicans A-9540", "assay": "MIC, standard tube dilution procedure", "format": "cell-based", "conditions": "Candida albicans, A9540"}, "[3]": {"tested_on": "Trichophyton mentagrophytes A-9870", "assay": "MIC, standard tube dilution procedure", "format": "cell-based", "conditions": "Trichophyton mentagrophytes, A9870"}, "[4]": {"tested_on": "Klebsiella pneumoniae A-9977", "assay": "MIC, standard tube dilution procedure", "format": "cell-based", "conditions": "Klebsiella pneumoniae, A9977"}, "[5]": {"tested_on": "Candida tropicalis A-15051", "assay": "MIC, standard tube dilution procedure", "format": "cell-based", "conditions": "Candida tropicalis, A15051"}, "[6]": {"tested_on": "Streptococcus pyogenes A-9604", "assay": "MIC, standard tube dilution procedure", "format": "cell-based", "conditions": "Streptococcus pyogenes, A9604"}, "Escherichia coli A-15119": {"tested_on": "Escherichia coli A-15119", "assay": "MIC, standard tube dilution procedure", "format": "cell-based", "conditions": "Escherichia coli, A15119"}, "Proteus mirabilis A-9900": {"tested_on": "Proteus mirabilis A-9900", "assay": "MIC, standard tube dilution procedure", "format": "cell-based", "conditions": "Proteus mirabilis, A9900"}, "L-1210 leukemia [7]": {"tested_on": "L-1210 leukemia", "assay": "transplanted mouse leukemia L-1210 (ascitic)", "conditions": "Example 7 column fraction", "experimental": "(§1) The compounds of the present invention were also tested against various transplantable rodent tumer systems.\n(§2) Single injection Day 1 intraperitoneally.?\n(§3) T/C percent MST=median survival time in days: Treated/Control × 100"}, "[8]": {"tested_on": "Streptococcus pneumoniae A-9585", "assay": "MIC, standard tube dilution procedure", "format": "cell-based", "conditions": "Streptococcus pneumoniae, A9585"}, "[9]": {"tested_on": "Cryptococcus neoformans A-1503", "assay": "MIC, standard tube dilution procedure", "format": "cell-based", "conditions": "Cryptococcus neoformans, A1503"}, "[10]": {"assay": "acute intraperitoneal LD50 in mice", "conditions": "mouse, in vivo, ip"}, "[11]": {"tested_on": "Staphylococcus aureus A-9497", "assay": "MIC, standard tube dilution procedure", "format": "cell-based", "conditions": "Staphylococcus aureus, A9497"}, "P-388 leukemia": {"tested_on": "P-388 leukemia", "assay": "transplanted mouse leukemia P-388 (ascitic)", "conditions": "Example 7 column fraction", "experimental": "as §1, §2, §3"}, "[12]": {"conditions": "3.2 mg/kg/day i.p., Day 1, 1 injection"}, "[13]": {"conditions": "3.2 mg/kg/day i.p., Day 1→5, 5 injections"}, "[14]": {"conditions": "6.4 mg/kg/day i.p., Day 1, 1 injection"}, "[15]": {"conditions": "6.4 mg/kg/day i.p., Day 1→5, 4 injections"}, "[16]": {"conditions": "12.8 mg/kg/day i.p., Day 1, 1 injection"}, "[17]": {"conditions": ".2 mg/kg/day i.p., Day 1→5, 5 injections"}, "[18]": {"conditions": ".4 mg/kg/day i.p., Day 1, 1 injection"}, "[19]": {"conditions": ".4 mg/kg/day i.p., Day 1→5, 5 injections"}, "[20]": {"conditions": ".8 mg/kg/day i.p., Day 1, 1 injection"}, "[21]": {"conditions": ".8 mg/kg/day i.p., Day 1→5, 5 injections"}}}
{"compound": "CC[C@@]1(O)C[C@H](O[C@H]2C[C@H](N(C)C)[C@H](O[C@H]3C[C@H](O)[C@H](O[C@H]4C[C@H](O)[C@H](O)[C@H](C)O4)[C@H](C)O3)[C@H](C)O2)c2c(cc3c(c2O)C(=O)c2c(O)ccc(O)c2C3=O)[C@H]1C(=O)OC", "note": "[marcellomycin]", "values": [{"measurement": "MIC", "setting": "[1]", "value": 1, "unit": "µg/mL"}, {"measurement": "MIC", "setting": "Candida krusei A-15052", "value": 125, "unit": "µg/mL"}, {"measurement": "Average Weight Change", "setting": "L-1210 leukemia [2]; [12]", "value": -0.7, "unit": "g"}, {"measurement": "MST %T/C", "setting": "L-1210 leukemia [2]; [12]", "value": 157, "unit": "%"}, {"measurement": "MST Days", "setting": "L-1210 leukemia [2]; [12]", "value": 11.0, "unit": "days"}, {"measurement": "Survivors Day 5", "setting": "L-1210 leukemia [2]; [12]", "value": "6/6"}, {"measurement": "Average Weight Change", "setting": "L-1210 leukemia [2]; [13]", "value": -1.2, "unit": "g"}, {"measurement": "MST %T/C", "setting": "L-1210 leukemia [2]; [13]", "value": 86, "unit": "%"}, {"measurement": "MST Days", "setting": "L-1210 leukemia [2]; [13]", "value": 6.0, "unit": "days"}, {"measurement": "Survivors Day 5", "setting": "L-1210 leukemia [2]; [13]", "value": "3/6"}, {"measurement": "Average Weight Change", "setting": "L-1210 leukemia [2]; [14]", "value": -0.7, "unit": "g"}, {"measurement": "MST %T/C", "setting": "L-1210 leukemia [2]; [14]", "value": 157, "unit": "%"}, {"measurement": "MST Days", "setting": "L-1210 leukemia [2]; [14]", "value": 11.0, "unit": "days"}, {"measurement": "Survivors Day 5", "setting": "L-1210 leukemia [2]; [14]", "value": "6/6"}, {"measurement": "Average Weight Change in g.", "setting": "L-1210 leukemia [2]; [15]", "value": "TOXIC"}, {"measurement": "MST %T/C", "setting": "L-1210 leukemia [2]; [15]", "value": "TOXIC"}, {"measurement": "MST Days", "setting": "L-1210 leukemia [2]; [15]", "value": "TOXIC"}, {"measurement": "Survivors Day 5", "setting": "L-1210 leukemia [2]; [15]", "value": "0/6"}, {"measurement": "Average Weight Change", "setting": "L-1210 leukemia [2]; [16]", "value": -0.7, "unit": "g"}, {"measurement": "MST %T/C", "setting": "L-1210 leukemia [2]; [16]", "value": 143, "unit": "%"}, {"measurement": "MST Days", "setting": "L-1210 leukemia [2]; [16]", "value": 10.0, "unit": "days"}, {"measurement": "Survivors Day 5", "setting": "L-1210 leukemia [2]; [16]", "value": "3/6"}, {"measurement": "Average Weight Change", "setting": "L-1210 leukemia [2]; [17]", "value": -1.1, "unit": "g"}, {"measurement": "MST %T/C", "setting": "L-1210 leukemia [2]; [17]", "value": 129, "unit": "%"}, {"measurement": "MST Days", "setting": "L-1210 leukemia [2]; [17]", "value": 9.0, "unit": "days"}, {"measurement": "Survivors Day 5", "setting": "L-1210 leukemia [2]; [17]", "value": "6/6"}, {"measurement": "Average Weight Change", "setting": "L-1210 leukemia [2]; [18]", "value": -0.8, "unit": "g"}, {"measurement": "MST %T/C", "setting": "L-1210 leukemia [2]; [18]", "value": 129, "unit": "%"}, {"measurement": "MST Days", "setting": "L-1210 leukemia [2]; [18]", "value": 9.0, "unit": "days"}, {"measurement": "Survivors Day 5", "setting": "L-1210 leukemia [2]; [18]", "value": "6/6"}, {"measurement": "Average Weight Change", "setting": "L-1210 leukemia [2]; [19]", "value": 0, "unit": "g"}, {"measurement": "MST %T/C", "setting": "L-1210 leukemia [2]; [19]", "value": 129, "unit": "%"}, {"measurement": "MST Days", "setting": "L-1210 leukemia [2]; [19]", "value": 9.0, "unit": "days"}, {"measurement": "Survivors Day 5", "setting": "L-1210 leukemia [2]; [19]", "value": "6/6"}, {"measurement": "Average Weight Change", "setting": "L-1210 leukemia [2]; [20]", "value": 0, "unit": "g"}, {"measurement": "MST %T/C", "setting": "L-1210 leukemia [2]; [20]", "value": 150, "unit": "%"}, {"measurement": "MST Days", "setting": "L-1210 leukemia [2]; [20]", "value": 10.5, "unit": "days"}, {"measurement": "Survivors Day 5", "setting": "L-1210 leukemia [2]; [20]", "value": "6/6"}, {"measurement": "Average Weight Change", "setting": "L-1210 leukemia [2]; [21]", "value": -0.2, "unit": "g"}, {"measurement": "MST %T/C", "setting": "L-1210 leukemia [2]; [21]", "value": 143, "unit": "%"}, {"measurement": "MST Days", "setting": "L-1210 leukemia [2]; [21]", "value": 10.0, "unit": "days"}, {"measurement": "Survivors Day 5", "setting": "L-1210 leukemia [2]; [21]", "value": "6/6"}, {"measurement": "potency relative to musettamycin in inhibitory effects on L-1210", "setting": "L-1210 leukemia [2]; purified, L-1210 mouse leukemia", "value": "about four times"}, {"measurement": "MIC", "setting": "Escherichia coli A-21780", "value": 32, "unit": "µg/mL"}, {"measurement": "MIC", "setting": "Candida albicans A-9540", "value": 125, "unit": "µg/mL"}, {"measurement": "MIC", "setting": "[3]", "value": "> 125", "unit": "µg/mL"}, {"measurement": "MIC", "setting": "[4]", "value": 125, "unit": "µg/mL"}, {"measurement": "MIC", "setting": "[5]", "value": 125, "unit": "µg/mL"}, {"measurement": "MIC", "setting": "[6]", "value": 0.03, "unit": "µg/mL"}, {"measurement": "MIC", "setting": "Escherichia coli A-15119", "value": 125, "unit": "µg/mL"}, {"measurement": "MIC", "setting": "Proteus mirabilis A-9900", "value": "> 125", "unit": "µg/mL"}, {"measurement": "activity on L-1210 mouse leukemia", "setting": "L-1210 leukemia [7]", "value": "high activity"}, {"measurement": "MIC", "setting": "[8]", "value": 0.03, "unit": "µg/mL"}, {"measurement": "MIC", "setting": "[9]", "value": 125, "unit": "µg/mL"}, {"measurement": "LD50", "setting": "[10]", "value": "6.35 to 10.6", "unit": "mg/kg"}, {"measurement": "MIC", "setting": "[11]", "value": 1, "unit": "µg/mL"}, {"measurement": "activity on P-388 mouse leukemia", "setting": "P-388 leukemia", "value": "high activity"}]}
